Biological target: Nef-ASK1 interaction (UniProt P03404+Q99683)
Settings: ATCC CRL-1573 cells co-transfected with Nef-ASK1g, 48 hours; ASK-1 alone 43.15, ASK-1 + Nef (background) 22.15, control 11.0
Description: HEK 293 cells were grown in Minimal Essential medium (low glucose, Sigma) supplemented with 10% fetal bovine serum, penicillin (100 units/ml), streptomycin (100 μg/ml) and Gentamycin (50 μg/ml) at 37° C. with 5% CO2. 1×10^5 cells were seeded per well in twenty four well plates, one day before transfection. Using commercially available ExGen 500 (fermentas) transfection reagent, all the required endotoxin free plasmid constructs were co-transfected into HEK 293 cells. 0.75 microgram of each plasmid and 5.0 micro liters per well ExGen 500 reagent were used. 48 h post transfection the cells were harvested and Luciferase activity was monitored using the Dual-Luciferase® Reporter assay kit (Promega). The data for basal control were used for the conversion of Luciferase activity to fold activation. As a positive control, the protein-protein interaction vectors pACTMyoD and pBIND-ID encoding the MyoD and ID control proteins, provided with the kit were used.
The ASK1g, h, i,j fragments alone and with Nef were transfected in ATCC CRL-1573™ cells. The transfected cells were cultured for 48 hours and were labeled with AnnexinV and PI staining for analyzing aspoptosis.
Inhibitors were designed from the crystal structure of Nef solved in our laboratory (Pankaj et al., 2011) The inhibitors were cultured with cells transfected will Nef, ASK1g and co-transfected with Nef-ASK1g. The cells after 48 hours were analysed for apoptosis using annexin V and PI staining.

Sequence | % of Annexin V cells means apoptotic cells [%]
PVRPQVPLRP [Peptide-5] | 22.45
LHGMEDPE [Peptide-4] | 23.0
GENNCLLH [Peptide-2] | 24.96
DEVGEANN [Peptide-3] | 40.37
TPGPGVRYP [Peptide-1] | 22.45

Source: patent publication US9327009B2, “Peptide inhibitors as novel anti-HIV therapeutics” (Council of Scientific & Industrial Research, priority 2012, dated 2016)
